From patent EP4745138A1, “THIO-GLUTARIMIDO ISOINDOLINONE DERIVATIVE, BIFUNCTIONAL PROTEIN DEGRADER CONTAINING SAME, AND USES THEREOF” (Gluetacs Therapeutics (Shanghai) Co., Ltd., priority 2023, dated 2025)
Like-named read-outs stand apart in the source and are kept apart here.

Assays:
[1] = molecular target: T1, human Cereblon WT GST-tagged protein (Homo sapiens, UniProt Q96SW2); test: CRBN-binding affinity, HTRF (CEREBLON BINDING kit); settings: for inhibition at 0.5 µM: read-out: Inhibition Rate at 0.5 µM (%); for inhibition at 2 µM: read-out: Inhibition Rate at 2 µM (%)
T1 construct: purchased CISBIO 64BDCRBNPEH
Outline: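 Competitive HTRF binding: compounds diluted in diluent #9 incubated with GST-tagged wild-type human Cereblon, thalidomide-Red tracer and anti-GST Eu antibody. Final compound concentrations 2 µM and 0.5 µM.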

BCR-ABL = molecular target: T2, BCR-ABL (Homo sapiens, UniProt P00519+P11274+Q96SW2, E27K); test: Western blot, target protein degradation in K562 Cell; type: cell-based; settings: substrate protein remaining %, treated at 500 nM and 50 nM, 24 hours
T2 construct: endogenous in cells; host or cells: K562
Method: (§1) Conventional Western blot assay was performed to evaluate the effects of the compounds of the present disclosure on the expression of target proteins in cells.
(§2) (1) Cell Seeding and Protein Harvesting: The selected cells were processed according to the cell seeding procedure and protein harvesting procedure in Table II-2. Table II-2 Cell Seeding and Protein Harvesting Procedures
(§3) (2) To the collected supernatant, 5X SDS sample loading buffer was added, followed by denaturation at 95°C for 5 minutes. The denatured samples were then separated by SDS-PAGE electrophoresis on a polyacrylamide gel. Proteins were transferred to a nitrocellulose membrane (0.45 µm NC membrane), blocked with blocking buffer at room temperature for 1 hour, and subjected to antibody incubation and development procedures according to the antibody manufacturer's instructions (Cell Signaling Technology).
(§4) Half-Maximal Degradation Concentration value (the drug concentration required for degrading proteins by 50%, abbreviated as DC50) reads method: comparing the grayscale values of Western blot bands from drug-treated samples with those from blank DMSO-treated controls, and identifying the drug concentration range at which the grayscale value is half that of the DMSO-treated control bands.
(§5) DC50 values can be calculated using ImageJ software to measure grayscale values of Western blot bands from drug-treated samples. The concentration-response curve is fitted to estimate the drug concentration corresponding to half the grayscale value.
(§6) Target protein remaining (%) refers to the percentage of target protein remaining in cells after treatment with protein degrader compounds.
(§7) Calculation method for target protein remaining (%): Use ImageJ software to measure grayscale values of Western blot bands from drug (protein degrader)-treated samples. The grayscale value of drug-treated bands is divided by that of internal control protein bands, and the resulting quotient is normalized to obtain the relative percentage of remaining target protein after protein degrader treatment. Target protein degradation rate(%) = 1−target protein remaining(%). [formula]

CDK6 = molecular target: T3, CDK6 (Homo sapiens, UniProt Q00534); test: Western blot, target protein degradation in MDA-MB-231 Cell; type: cell-based; settings: substrate protein remaining %, treated at 500 nM and 50 nM, 24 hours
T3 construct: endogenous in cells; host or cells: MDA-MB-231
Method: as §1, §2, §3, §4, §5, §6, §7

CDK4 = molecular target: T4, CDK4 (Homo sapiens, UniProt P11802); test: as above; type: cell-based; settings: substrate protein remaining %, treated at 500 nM and 50 nM, 24 hours
T4 construct: endogenous in cells; host or cells: MDA-MB-231
Method: as §1, §2, §3, §4, §5, §6, §7

MM.1S = test: Tumor cell proliferation inhibition (CellTiter-Meiluncell Luminescent Cell Viability Assay); type: cell-based; settings: Homo sapiens, MM1.S, MM.1S, 96 hours, Table I-10, BCR-ABL inhibitors; for inhibition at 0.01 µM: 10 nM, read-out: Inhibition Rate at 10 nM (%); for inhibition at 0.5 µM: 500 nM, read-out: Inhibition Rate at 500 nM (%)
Outline: (§8)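 Following overnight seeding, tumor cells received serial compound dilutions to final levels that included 10 nM and 500 nM. Viability was assessed by luminescence at the end of the specified exposure time. Cultures were kept at 37°C with 5% CO2.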

SW620 = test: as above; type: cell-based; settings: Homo sapiens, 96 hours, Table I-10, BCR-ABL inhibitors
Outline: as §8

MV-4-11 = test: as above; type: cell-based; settings: Homo sapiens, 96 hours; for inhibition at 0.01 µM: MV4-11, 10 nM, read-out: Inhibition Rate at 10 nM (%); for inhibition at 0.5 µM: MV4-11, 500 nM, read-out: Inhibition Rate at 500 nM (%)
Outline: as §8

RPMI-8226 = test: as above; type: cell-based; settings: Homo sapiens, 96 hours; for inhibition at 0.01 µM: 10 nM, read-out: Inhibition Rate at 10 nM (%); for inhibition at 0.5 µM: 500 nM, read-out: Inhibition Rate at 500 nM (%)
Outline: as §8

A375 = test: as above; type: cell-based; settings: Homo sapiens, 96 hours, Table I-2, ALK inhibitors
Outline: (§9)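 Luminescent viability read-out (CellTiter-Meiluncell) after compound exposure for a specified time; IC50 determined. Seeding was done the day before dosing with serially diluted compound, final concentrations including 500 nM and 10 nM. Culture at 37°C, 5% CO2.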

CFPAC-1 = test: as above; type: cell-based; settings: Homo sapiens, 96 hours, Table I-2, ALK inhibitors
Outline: as §9

H1975 = test: as above; type: cell-based; settings: Homo sapiens, 96 hours, Table I-3, EGFR inhibitors
Outline: as §9

EGFR = test: Western blot, target protein degradation in H1975 Cell; type: cell-based, Human; settings: substrate protein remaining %, treated at 500 nM and 50 nM, 24 hours
Method: as §1, §2, §3, §4, §5, §6, §7

T2 sequence (P11274+P00519 fused, stated change not applied): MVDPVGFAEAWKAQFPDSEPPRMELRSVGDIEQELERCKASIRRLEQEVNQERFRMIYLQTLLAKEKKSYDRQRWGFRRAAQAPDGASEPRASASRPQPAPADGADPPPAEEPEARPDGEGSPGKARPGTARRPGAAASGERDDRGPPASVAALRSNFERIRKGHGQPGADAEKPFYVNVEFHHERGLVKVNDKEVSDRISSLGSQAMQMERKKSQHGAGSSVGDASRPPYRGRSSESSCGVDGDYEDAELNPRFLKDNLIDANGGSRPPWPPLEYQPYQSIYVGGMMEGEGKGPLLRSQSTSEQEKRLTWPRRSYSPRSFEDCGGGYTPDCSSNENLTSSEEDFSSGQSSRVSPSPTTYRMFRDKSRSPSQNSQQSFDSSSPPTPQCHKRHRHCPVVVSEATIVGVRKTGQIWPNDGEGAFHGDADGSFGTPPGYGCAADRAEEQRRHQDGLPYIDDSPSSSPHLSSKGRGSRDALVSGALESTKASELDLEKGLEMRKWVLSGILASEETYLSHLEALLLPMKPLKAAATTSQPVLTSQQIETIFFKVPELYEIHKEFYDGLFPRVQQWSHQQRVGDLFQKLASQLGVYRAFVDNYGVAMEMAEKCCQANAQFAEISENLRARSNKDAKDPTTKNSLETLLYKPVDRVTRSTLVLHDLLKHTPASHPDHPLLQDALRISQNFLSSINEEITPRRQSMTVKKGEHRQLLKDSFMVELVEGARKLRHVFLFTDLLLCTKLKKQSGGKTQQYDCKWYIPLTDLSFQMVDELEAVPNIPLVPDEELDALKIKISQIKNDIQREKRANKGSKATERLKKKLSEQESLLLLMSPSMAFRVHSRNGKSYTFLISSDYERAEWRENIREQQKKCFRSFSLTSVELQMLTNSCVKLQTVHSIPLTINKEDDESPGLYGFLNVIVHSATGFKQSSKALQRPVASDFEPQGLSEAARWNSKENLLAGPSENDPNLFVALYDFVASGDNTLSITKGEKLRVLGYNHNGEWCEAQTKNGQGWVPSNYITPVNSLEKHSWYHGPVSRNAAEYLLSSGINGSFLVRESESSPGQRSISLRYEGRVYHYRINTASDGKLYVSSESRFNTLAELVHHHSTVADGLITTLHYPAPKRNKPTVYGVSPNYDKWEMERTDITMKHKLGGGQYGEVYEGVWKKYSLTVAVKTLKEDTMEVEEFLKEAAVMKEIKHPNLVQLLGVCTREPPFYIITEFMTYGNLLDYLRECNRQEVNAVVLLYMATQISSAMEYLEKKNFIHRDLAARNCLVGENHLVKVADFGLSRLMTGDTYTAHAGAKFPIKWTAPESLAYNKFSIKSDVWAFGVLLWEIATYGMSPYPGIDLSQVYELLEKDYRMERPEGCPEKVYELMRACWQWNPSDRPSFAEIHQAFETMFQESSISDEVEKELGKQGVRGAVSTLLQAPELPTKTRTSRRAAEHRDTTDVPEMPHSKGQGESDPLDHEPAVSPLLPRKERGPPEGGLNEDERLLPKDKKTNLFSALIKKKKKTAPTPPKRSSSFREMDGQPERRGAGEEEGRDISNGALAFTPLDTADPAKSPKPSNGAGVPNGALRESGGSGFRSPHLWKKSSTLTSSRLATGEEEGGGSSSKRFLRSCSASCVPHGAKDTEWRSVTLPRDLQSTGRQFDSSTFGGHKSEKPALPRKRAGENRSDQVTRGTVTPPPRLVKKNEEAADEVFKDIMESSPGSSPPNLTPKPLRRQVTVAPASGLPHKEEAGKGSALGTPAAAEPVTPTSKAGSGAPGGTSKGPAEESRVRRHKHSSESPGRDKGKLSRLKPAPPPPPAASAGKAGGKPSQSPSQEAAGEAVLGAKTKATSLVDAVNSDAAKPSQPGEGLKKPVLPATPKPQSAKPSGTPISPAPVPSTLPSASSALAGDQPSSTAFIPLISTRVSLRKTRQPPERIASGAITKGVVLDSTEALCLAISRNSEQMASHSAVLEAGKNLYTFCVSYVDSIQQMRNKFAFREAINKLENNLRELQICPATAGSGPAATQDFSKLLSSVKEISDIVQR
T2 sequence (Q96SW2 whole entry, stated change not applied): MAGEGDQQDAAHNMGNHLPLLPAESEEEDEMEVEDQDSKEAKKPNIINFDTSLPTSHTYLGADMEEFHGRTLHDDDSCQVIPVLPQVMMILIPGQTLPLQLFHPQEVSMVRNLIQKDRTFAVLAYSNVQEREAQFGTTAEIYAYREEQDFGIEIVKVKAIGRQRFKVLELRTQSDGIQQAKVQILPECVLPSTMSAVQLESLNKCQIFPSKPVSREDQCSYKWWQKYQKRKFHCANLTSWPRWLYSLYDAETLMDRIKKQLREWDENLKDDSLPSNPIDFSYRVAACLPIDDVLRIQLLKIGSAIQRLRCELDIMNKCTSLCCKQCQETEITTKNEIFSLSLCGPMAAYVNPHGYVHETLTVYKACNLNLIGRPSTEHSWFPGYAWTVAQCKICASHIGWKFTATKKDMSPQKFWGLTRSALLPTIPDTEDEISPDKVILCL
T2 sequence (Q16531 whole entry partner): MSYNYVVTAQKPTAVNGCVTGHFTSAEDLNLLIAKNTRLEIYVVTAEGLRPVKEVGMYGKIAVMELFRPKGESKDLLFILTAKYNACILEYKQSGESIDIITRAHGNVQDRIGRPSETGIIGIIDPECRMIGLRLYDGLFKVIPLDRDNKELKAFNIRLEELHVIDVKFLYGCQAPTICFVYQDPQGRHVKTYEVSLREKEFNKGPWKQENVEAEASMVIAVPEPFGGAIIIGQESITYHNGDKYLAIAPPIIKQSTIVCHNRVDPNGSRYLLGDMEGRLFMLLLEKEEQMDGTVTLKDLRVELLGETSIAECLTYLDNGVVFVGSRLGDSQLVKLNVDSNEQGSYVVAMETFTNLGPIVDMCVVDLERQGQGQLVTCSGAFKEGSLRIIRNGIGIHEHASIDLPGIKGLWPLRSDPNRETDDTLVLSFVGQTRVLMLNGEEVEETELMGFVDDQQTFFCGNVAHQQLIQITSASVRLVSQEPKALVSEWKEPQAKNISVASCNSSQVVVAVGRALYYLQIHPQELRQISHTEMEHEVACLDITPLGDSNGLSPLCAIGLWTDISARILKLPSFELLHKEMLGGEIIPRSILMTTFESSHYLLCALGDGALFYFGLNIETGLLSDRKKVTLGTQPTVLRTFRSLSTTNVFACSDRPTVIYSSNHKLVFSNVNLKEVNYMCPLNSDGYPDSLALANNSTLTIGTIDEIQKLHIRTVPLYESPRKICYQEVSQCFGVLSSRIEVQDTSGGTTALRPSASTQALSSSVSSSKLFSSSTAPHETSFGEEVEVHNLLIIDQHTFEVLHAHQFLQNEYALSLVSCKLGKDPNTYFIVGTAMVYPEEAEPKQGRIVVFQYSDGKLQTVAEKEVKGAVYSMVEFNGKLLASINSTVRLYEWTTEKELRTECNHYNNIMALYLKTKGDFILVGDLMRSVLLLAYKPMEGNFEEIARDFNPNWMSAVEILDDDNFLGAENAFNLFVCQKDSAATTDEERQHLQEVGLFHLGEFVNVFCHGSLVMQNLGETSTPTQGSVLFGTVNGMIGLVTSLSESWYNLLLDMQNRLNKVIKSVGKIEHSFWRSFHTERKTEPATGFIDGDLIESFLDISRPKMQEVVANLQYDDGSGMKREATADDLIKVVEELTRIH
T1 sequence (Q96SW2 whole entry): as the sequence (Q96SW2 whole entry, stated change not applied) above
T4 sequence (P11802 whole entry): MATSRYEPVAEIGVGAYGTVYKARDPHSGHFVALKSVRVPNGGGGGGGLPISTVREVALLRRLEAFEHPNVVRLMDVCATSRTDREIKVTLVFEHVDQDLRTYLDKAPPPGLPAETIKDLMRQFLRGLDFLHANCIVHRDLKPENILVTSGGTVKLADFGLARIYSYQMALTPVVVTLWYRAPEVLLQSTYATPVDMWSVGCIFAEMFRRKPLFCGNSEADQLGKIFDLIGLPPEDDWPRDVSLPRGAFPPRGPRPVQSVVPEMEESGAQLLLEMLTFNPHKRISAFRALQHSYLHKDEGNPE
T3 sequence (Q00534 whole entry): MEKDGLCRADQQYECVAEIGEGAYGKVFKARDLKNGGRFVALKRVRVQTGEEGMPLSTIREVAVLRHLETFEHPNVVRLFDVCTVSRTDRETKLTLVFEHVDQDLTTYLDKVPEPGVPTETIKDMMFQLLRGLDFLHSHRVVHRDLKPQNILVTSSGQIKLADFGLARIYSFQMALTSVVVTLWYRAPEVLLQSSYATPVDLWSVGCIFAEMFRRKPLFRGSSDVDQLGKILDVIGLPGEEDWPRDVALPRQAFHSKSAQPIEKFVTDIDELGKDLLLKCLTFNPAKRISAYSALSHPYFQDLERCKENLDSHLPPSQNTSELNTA

Q: `O=C1CCC(N2Cc3c(CN4CCN(C5CCN(c6ncc(C(=O)Nc7ccc(OC(F)(F)Cl)cc7)cc6-c6cc[nH]n6)CC5)CC4)cccc3C2=S)C(=O)N1` (stereo not drawn) [GT-08776, N-(4-(chlorodifluoromethoxy)phenyl)-6-(4-(4-((2-(2,6-dioxopiperidin-3-yl)-1-thioxoisoindolin-4-yl)methyl)piperazin-1-yl)piperidin-1-yl)-5-(1H-pyrazol-3-yl)nicotinamide] was tested. Which inhibition at 0.5 µM [1] did it give?
A: 40 to 53%

Q: And the inhibition at 2 µM [1]?
A: 60 to 80%

Q: And the “Degradation of substrate protein BCR-ABL” value (BCR-ABL)?
A: A (0% ≤ substrate protein remaining % ≤ 80%)

Q: What does the source list for `CN(C)C(=O)c1cc2cnc(Nc3ccc(N4CCN(Cc5cccc6c5CN(C5CCC(=O)NC5=O)C6=S)CC4)cn3)nc2n1C1CCCC1` (stereo not drawn) [GT-08771, 7-cyclopentyl-2-((5-(4-((2-(2,6-dioxopiperidin-3-yl)-1-thioxoisoindolin-4-yl)methyl)piperazin-1-yl)pyridin-2-yl)amino)-N,N-dimethyl-7H-pyrrolo[2,3-d]pyrimidine-6-carboxamide]?
A: inhibition at 0.5 µM [1]: 60 to 80%; inhibition at 2 µM [1]: 80 to 100%; Degradation of substrate protein CDK6 (CDK6): A (0% ≤ substrate protein remaining % ≤ 80%); Degradation of substrate protein CDK4 (CDK4): A (0% ≤ substrate protein remaining % ≤ 80%)

Q: Which inhibition at 0.01 µM (MM.1S) does the source give for `Cc1ccc(C(=O)Nc2ccc(CN3CCN(Cc4ccc5c(c4)CN(C4CCC(=O)NC4=O)C5=S)CC3)c(C(F)(F)F)c2)cc1C#Cc1cnc2cccnn12` (stereo not drawn) [GT-08767, N-(4-((4-((2-(2,6-dioxopiperidin-3-yl)-1-thioxoisoindolin-5-yl)methyl)piperazin-1-yl)methyl)-3-(trifluoromethyl)phenyl)-3-(imidazo[1,2-b]pyridazin-3-ylethynyl)-4-methylbenzamide] here?
A: 70 to 80%

Q: And the inhibition at 0.5 µM (MM.1S)?
A: 80 to 100%

Q: And the inhibition at 0.01 µM (SW620; SW-620, 10 nM, read-out: Inhibition Rate at 10 nM (%))?
A: 40 to 50%

Q: And the inhibition at 0.5 µM (SW620; SW-620, 500 nM, read-out: Inhibition Rate at 500 nM (%))?
A: 80 to 100%

Q: And the inhibition at 0.01 µM (MV-4-11; Table I-10, BCR-ABL inhibitors)?
A: 80 to 100%

Q: And the inhibition at 0.5 µM (MV-4-11; Table I-10, BCR-ABL inhibitors)?
A: 80 to 100%

Q: And the inhibition at 0.01 µM (RPMI-8226; Table I-10, BCR-ABL inhibitors)?
A: 20 to 30%

Q: And the inhibition at 0.5 µM (RPMI-8226; Table I-10, BCR-ABL inhibitors)?
A: 80 to 100%

Q: And the “Degradation of substrate protein BCR-ABL” value (BCR-ABL)?
A: A (0% ≤ substrate protein remaining % ≤ 80%)

Q: With `Cc1ccc(C(=O)Nc2ccc(N3CCN(Cc4cccc5c4CN(C4CCC(=O)NC4=O)C5=S)CC3)c(C(F)(F)F)c2)cc1C#Cc1cnc2cccnn12` (stereo not drawn) [GT-08774, N-(4-(4-((2-(2,6-dioxopiperidin-3-yl)-1-thioxoisoindolin-4-yl)methyl)piperazin-1-yl)-3-(trifluoromethyl)phenyl)-3-(imidazo[1,2-b]pyridazin-3-ylethynyl)-4-methylbenzamide] as the molecule, how does the inhibition at 0.01 µM (MV-4-11; Table I-10, BCR-ABL inhibitors) read?
A: 20 to 30%

Q: And the inhibition at 0.5 µM (MV-4-11; Table I-10, BCR-ABL inhibitors)?
A: 70 to 80%

Q: And the “Degradation of substrate protein BCR-ABL” value (BCR-ABL)?
A: A (0% ≤ substrate protein remaining % ≤ 80%)

Q: Which results are given for `O=C1CCC(N2Cc3cc(CN4CCN(C5CCN(c6ncc(C(=O)Nc7ccc(OC(F)(F)Cl)cc7)cc6-c6cc[nH]n6)CC5)CC4)ccc3C2=S)C(=O)N1` (stereo not drawn) [GT-08770, N-(4-(chlorodifluoromethoxy)phenyl)-6-(4-(4-((2-(2,6-dioxopiperidin-3-yl)-1-thioxoisoindolin-5-yl)methyl)piperazin-1-yl)piperidin-1-yl)-5-(1H-pyrazol-3-yl)nicotinamide]?
A: inhibition at 0.5 µM [1]: 20 to 30%; inhibition at 2 µM [1]: 60 to 80%; inhibition at 0.01 µM (MM.1S): 5 to 10%; inhibition at 0.5 µM (MM.1S): 30 to 40%; inhibition at 0.01 µM (RPMI-8226; Table I-10, BCR-ABL inhibitors): 10 to 20%; inhibition at 0.5 µM (RPMI-8226; Table I-10, BCR-ABL inhibitors): 40 to 50%; Degradation of substrate protein BCR-ABL (BCR-ABL): A (0% ≤ substrate protein remaining % ≤ 80%)

Q: For `Cc1ccc(C(=O)Nc2ccc(N3CCN(Cc4ccc5c(c4)CN(C4CCC(=O)NC4=O)C5=S)CC3)c(C(F)(F)F)c2)cc1C#Cc1cnc2cccnn12` (stereo not drawn) [GT-08768, N-(4-(4-((2-(2,6-dioxopiperidin-3-yl)-1-thioxoisoindolin-5-yl)methyl)piperazin-1-yl)-3-(trifluoromethyl)phenyl)-3-(imidazo[1,2-b]pyridazin-3-ylethynyl)-4-methylbenzamide], which “Degradation of substrate protein BCR-ABL” value (BCR-ABL) is on record?
A: A (0% ≤ substrate protein remaining % ≤ 80%)

Q: Which inhibition at 0.5 µM [1] does the source give for `COc1cc(N2CCC(N3CCN(Cc4ccc5c(c4)CN(C4CCC(=O)NC4=O)C5=S)CC3)CC2)ccc1Nc1ncc(Cl)c(Nc2ccccc2P(C)(C)=O)n1` (stereo not drawn) [GT-09425, 3-(5-((4-(1-(4-((5-chloro-4-((2-(dimethylphosphoryl)phenyl)amino)pyrimidin-2-yl)amino)-3-methoxyphenyl)piperidin-4-yl)piperazin-1-yl)methyl)-1-thioxoisoindolin-2-yl)piperidine-2,6-dione] here?
A: 60 to 80%

Q: What about the inhibition at 2 µM [1] of the same molecule?
A: 80 to 100%

Q: And the inhibition at 0.01 µM (A375; A-375, 10 nM, read-out: Inhibition Rate at 10 nM (%))?
A: 20 to 30%

Q: What about the inhibition at 0.5 µM (A375; A-375, 500 nM, read-out: Inhibition Rate at 500 nM (%)) of the same molecule?
A: 50 to 60%

Q: And the inhibition at 0.01 µM (CFPAC-1; 10 nM, read-out: Inhibition Rate at 10 nM (%))?
A: 10 to 20%

Q: What about the inhibition at 0.5 µM (CFPAC-1; 500 nM, read-out: Inhibition Rate at 500 nM (%)) of the same molecule?
A: 60 to 70%

Q: `O=C1CCC(N2Cc3ccc(CN4C[C@H]5C[C@@H]4CN5c4ccc(-c5cc(F)c6c(c5)C(=O)N(C(C(=O)Nc5nccs5)c5ncn7c5CCC7)C6)cc4)cc3C2=S)C(=O)N1` (stereo partly drawn) [GT-08764, 2-(6,7-dihydro-5H-pyrrolo[1,2-c]imidazol-1-yl)-2-(6-(4-((1R,4R)-5-((2-(2,6-dioxopiperidin-3-yl)-3-thioxoisoindolin-5-yl)methyl)-2,5-diazabicyclo[2.2.1]heptan-2-yl)phenyl)-4-fluoro-1-oxoisoindolin-2-yl)-N-(thiazol-2-yl)acetamide] was tested. Which inhibition at 0.5 µM [1] did it give?
A: 60 to 80%

Q: What about the inhibition at 2 µM [1] of the same molecule?
A: 60 to 80%

Q: And the inhibition at 0.01 µM (H1975; NCI-H1975, 10 nM, read-out: Inhibition Rate at 10 nM (%))?
A: 20 to 30%

Q: And the inhibition at 0.5 µM (H1975; NCI-H1975, 500 nM, read-out: Inhibition Rate at 500 nM (%))?
A: 50 to 60%

Q: And the “Degradation of substrate protein EGFR” value (EGFR)?
A: A (0% ≤ substrate protein remaining % ≤ 80%)

Q: What does the source list for `COc1cc(N2CCC(N3CCN(Cc4ccc5c(c4)C(=S)N(C4CCC(=O)NC4=O)C5)CC3)CC2)c(C)cc1Nc1ncc(Br)c(Nc2ccc3nccnc3c2P(C)(C)=O)n1` (stereo not drawn) [GT-08762, 3-(6-((4-(1-(4-((5-bromo-4-((5-(dimethylphosphoryl)quinoxalin-6-yl)amino)pyrimidin-2-yl)amino)-5-methoxy-2-methylphenyl)piperidin-4-yl)piperazin-1-yl)methyl)-1-thioxoisoindolin-2-yl)piperidine-2,6-dione]?
A: inhibition at 0.5 µM [1]: 60 to 80%; inhibition at 2 µM [1]: 80 to 100%; inhibition at 0.01 µM (MV-4-11; Table I-3, EGFR inhibitors): 30 to 40%; inhibition at 0.5 µM (MV-4-11; Table I-3, EGFR inhibitors): 80 to 100%; inhibition at 0.01 µM (RPMI-8226; Table I-3, EGFR inhibitors): 30 to 40%; inhibition at 0.5 µM (RPMI-8226; Table I-3, EGFR inhibitors): 40 to 50%; Degradation of substrate protein EGFR (EGFR): A (0% ≤ substrate protein remaining % ≤ 80%)
